The target in test [1] is T1, TLR9 (Homo sapiens, UniProt Q9NR96).
T1 sequence (Q9NR96 26-1032): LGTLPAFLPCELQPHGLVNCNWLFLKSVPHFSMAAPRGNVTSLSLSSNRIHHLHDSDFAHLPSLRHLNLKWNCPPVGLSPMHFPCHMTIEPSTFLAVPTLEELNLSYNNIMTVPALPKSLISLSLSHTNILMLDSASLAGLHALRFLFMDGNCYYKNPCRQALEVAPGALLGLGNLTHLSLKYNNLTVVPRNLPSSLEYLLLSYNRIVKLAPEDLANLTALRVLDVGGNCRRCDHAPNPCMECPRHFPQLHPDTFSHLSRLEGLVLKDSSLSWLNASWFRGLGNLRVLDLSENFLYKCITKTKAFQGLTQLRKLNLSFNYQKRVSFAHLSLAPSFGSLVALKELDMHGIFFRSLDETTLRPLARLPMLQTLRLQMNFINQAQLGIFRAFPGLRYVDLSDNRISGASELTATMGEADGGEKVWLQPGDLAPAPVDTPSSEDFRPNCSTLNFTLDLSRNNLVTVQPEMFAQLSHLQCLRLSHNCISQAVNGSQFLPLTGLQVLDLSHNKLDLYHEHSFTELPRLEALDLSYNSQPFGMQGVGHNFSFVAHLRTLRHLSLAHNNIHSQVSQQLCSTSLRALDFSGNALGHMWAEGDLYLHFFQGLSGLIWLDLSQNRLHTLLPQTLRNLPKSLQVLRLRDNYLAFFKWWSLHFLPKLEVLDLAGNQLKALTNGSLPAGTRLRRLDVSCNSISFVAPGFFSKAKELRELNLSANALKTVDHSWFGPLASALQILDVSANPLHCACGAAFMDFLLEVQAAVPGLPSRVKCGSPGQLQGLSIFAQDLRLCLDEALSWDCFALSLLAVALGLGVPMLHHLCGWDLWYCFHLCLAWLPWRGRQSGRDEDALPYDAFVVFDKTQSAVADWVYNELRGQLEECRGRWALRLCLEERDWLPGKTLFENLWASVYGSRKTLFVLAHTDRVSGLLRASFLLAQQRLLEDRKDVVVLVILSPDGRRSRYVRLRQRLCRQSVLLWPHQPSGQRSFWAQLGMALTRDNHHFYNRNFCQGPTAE
Kind of test: Activity on TLR9. Conditions: concentrations up to 25 μM. The format is cell-based. The protocol:
(§1) The half-maximal effective concentration (EC50) for VTX-2337 activation of TLR8 and TLR7 was assessed in peripheral blood mononuclear cells (PBMCs) from 15 healthy donors and also in HEK293 cells transfected with TLR8 or TLR7 and an NF-κB driven reporter gene. […] Also it was observed that VTX-2337 had no activity on TLR2, TLR3, TLR4, TLR5, TLR6, or TLR9 at concentrations up to 25 μM.

Test [2] addresses TLR2 (Homo sapiens, UniProt O60603). Kind of test: Activity on TLR2. The format is cell-based. The note with it: concentrations up to 25 μM. The protocol: as §1

Molecules are shown by their SMILES.

Sequence of TLR2 (O60603 21-784, species assumed): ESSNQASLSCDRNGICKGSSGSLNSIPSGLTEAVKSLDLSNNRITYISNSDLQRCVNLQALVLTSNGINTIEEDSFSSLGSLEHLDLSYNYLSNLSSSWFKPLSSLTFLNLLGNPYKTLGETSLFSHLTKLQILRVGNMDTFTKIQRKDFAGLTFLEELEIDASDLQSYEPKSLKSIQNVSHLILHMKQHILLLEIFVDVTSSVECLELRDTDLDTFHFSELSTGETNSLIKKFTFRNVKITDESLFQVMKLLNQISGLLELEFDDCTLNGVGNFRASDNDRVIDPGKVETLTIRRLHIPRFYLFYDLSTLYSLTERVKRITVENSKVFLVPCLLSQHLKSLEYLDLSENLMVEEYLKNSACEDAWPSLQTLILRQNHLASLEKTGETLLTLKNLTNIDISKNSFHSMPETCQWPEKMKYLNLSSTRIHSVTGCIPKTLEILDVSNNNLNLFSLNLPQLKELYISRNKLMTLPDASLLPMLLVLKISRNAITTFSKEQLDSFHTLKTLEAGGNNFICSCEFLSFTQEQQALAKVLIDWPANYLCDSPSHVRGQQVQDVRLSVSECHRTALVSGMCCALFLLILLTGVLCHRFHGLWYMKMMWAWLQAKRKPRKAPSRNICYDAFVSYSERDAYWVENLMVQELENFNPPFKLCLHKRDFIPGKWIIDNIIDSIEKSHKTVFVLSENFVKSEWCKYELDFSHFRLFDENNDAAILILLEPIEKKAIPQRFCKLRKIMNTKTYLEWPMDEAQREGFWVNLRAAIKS

As to `CCCN(CCC)C(=O)C1=Cc2ccc(-c3ccc(C(=O)N4CCCC4)cc3)cc2N=C(N)C1` [VTX-2337, 2-amino-N,N-dipropyl-8-(4-(pyrrolidine-1-carbonyl)phenyl)-3H-benzo[b]azepine-4-carboxamide], in test [1], the “activity on TLR9” value is “no activity”. Further, in test [2], the “activity on TLR2” value is reported as “no activity”.

The record behind these values is patent US20120219615A1, “Therapeutic Use of a TLR Agonist and Combination Therapy” (The Trustees of the University of Pennsylvania, priority 2010, published 2012).
